# Measured values reported in patent US10480032B2, “Use of EI24 gene” (UNIVERSITY-INDUSTRY FOUNDATION, YONSEI UNIVERSITY, priority 2016, dated 2019).
# Tested on: PC9-GR cells expressing exogenous EI24 (9GR-O/E)
# Assay: MTT assay in gefitinib-resistant PC9-GR cells over-expressing EI24
# Type: cell-based, human
# Details: 20 μM gefitinib, ectopic expression of EI24 in PC9-GR, FIG. 3
# Method: A PC9 EGFR-mutant NSCLC cell line and its gefitinib-resistant derivative (PC9-GR) are described in a document by S. M. Kim et al. (Mol. Cancer Ther. vol. 11, pp. 2254-2264(2012)). All cells were cultured in an RPMI 1640 medium supplemented with 10% […]. A human EI24-overexpressing cell line and a control cell line were established by transfection with a plasmid including FLAG-tagged EI24 and the corresponding empty vector (pcDNA3.1), respectively. Human EI24-knockdown cell lines were established using a method described in a document by J. M. Choi et al. (Oncotarget, vol. 4, pp. 2383-2396(2013)). The shRNA sequences are as follows:
# Cells were seeded at a density of 3×10^4 cells/well in a 96-well culture plate and incubated for 24 hours. The cells were exposed to drugs for 48 hours, and 0.4 mg/ml MTT was added until reaching a mid-height of each well. After incubating at 37° C. for 4 hours, formazan crystals in viable cells were solubilized with 100 μl of dimethyl sulfoxide (DMSO). The optical density of the formazan product was read at 590 nm on a microreader (Bio-Rad). All experiments were repeated three times.
# In addition, the EI24 gene was over-expressed in a gefitinib-resistant cell line (PC9-GR) among PC9 cell lines and gefitinib was added thereto, and EI24 expression and apoptosis were measured through immunoblotting analysis and MTT assay, respectively. […]
smiles,measurement,value
COc1cc2ncnc(Nc3ccc(F)c(Cl)c3)c2cc1OCCCN1CCOCC1 [gefitinib],cell viability,up to 18%
